Laboratory results taken from patent US6610535B1, “Progenitor cells and methods and uses related thereto” (ES Cell International Pte Ltd., priority 2000, dated 2003).
Entries after “also recorded” stand apart in the source; their conditions may differ. Read-outs that look alike come from different tables or passages of the source. Where no end group is shown, it is not given here.

Experiments:
Type in all cases: cell-based, rat
NACs = assay: Calcium imaging (Fluo-3) of glucose-induced calcium current in NACs; conditions: Fluo-3, confocal microscopy
Experimental: Cells were then washed to remove excess dye and placed onto a heated microscope stage (Olympus) and maintained at 32° C. Fluo-3 fluorescence intensity was used as an indicator of intracellular calcium concentration and was measured with a confocal laser-scanning microscope (Olympus). The excitation wavelength was set to 488 nm (argon ion laser) and a 40×water lens was used. The same parameters for laser scanning were set for each experiment, including confocal aperture and laser intensity. The laser scanning was performed as an XYT series with an interval of 10 seconds between each scan in order to resolve glucose-induced changes in intracellular calcium. The imaging files were stored and subsequently analyzed with FLUOVIEW software (Olympus). Cells of interest were circled and the mean intensity of the circled areas was plotted over time.

duct monolayer = assay: Induction of non-adherent cells (NACs, floating progenitor cells) from confluent pancreatic duct monolayer culture
duct cultures = assay: Immunostaining for insulin in duct cultures; conditions: FIG. 12; 48 hours in varying secretin doses
duct spheres = assay: Duct sphere differentiation after growth with added factors, immunohistochemistry; conditions: LIF in growth culture medium in addition to six growth factors
Experimental: Ducts are dissociated into single cells by the dissociation enzyme cocktail containing 1.33 mg/ml Trypsin, 0.7 mg/ml Hyaluronidase, 0.2 mg/ml Kynerenic Acid, and 200 U/ml DNase and plated into sphere culture media (culture media containing 10 ng/ml bFGF, 20 ng/ml EGF, 40 ng/ml HGF, 8 ng/ml TGF α, 30 ng/ml IGF-I and IGF-II, 2% B27 supplements (Gibco/BRL), 8 mM HEMES, 2 mM Glutamine, 100 U/ml penicillin and 100 ug/ml streptomycin in DMEM-F12 medium). After two days in culture, the primary spheres were taken onto HTB-9 matrix in the differentiation media (5% FBS in Iscove Media containing 200 ng/ml PYY and 30 uM Forskolin) for 4 days differentiation. The cells are fixed by 1% PFA followed by IHC analysis.

[1] = factor added to day 5 duct monolayer, 48 hours

Molecule: CC1=NS(=O)(=O)c2cc(Cl)ccc2N1 [diazoxide]
- effect on calcium current in NACs (NACs): completely inhibited

Molecule: secretin: secretin
- induction of differentiation of duct monolayer (duct monolayer; duct monolayer culture): can induce differentiation
- effect on NAC / floating progenitor cell generation (duct monolayer; [1]): dose dependent increase
- number of insulin positive cells in the monolayer (duct cultures): increases with secretin dose

Molecule: CCCC(=O)Nc1ncnc2c1ncn2[C@@H]1O[C@@H]2COP(=O)(O)O[C@H]2[C@H]1OC(=O)CCC [Dibutyrl cAMP, dibutyryl-cAMP, reference compound]
- induction of differentiation of duct monolayer (duct monolayer; duct monolayer culture): found to induce differentiation
- effect on NAC / floating progenitor cell generation (duct monolayer; [1]): can substitute for DCE

Molecule: LIF: leukemia inhibitory factor
- insulin positive cells upon differentiation (duct spheres): many fewer
- relative amount of Somatostatin positive cells upon differentiation (duct spheres): greatly increased

Molecule: O=CC[C@@H](O)[C@H](O)[C@H](O)CO [2-deoxyglucose]
- effect on calcium current in NACs (NACs): not induced

Molecule: VIP: Vasoactive Intestinal Peptide (HSDAVFTDNYTRLRKQMAVKKYLNSILN-NH2; ends and bridges not checked; UniProt P01282 125-152, looked up)
- increase in number of floating progenitor cells versus control (duct monolayer; FIG. 13, 50 ng/ml, 48 hours, control 5% FCS): > 3 fold
- optimal dosage for induction of floating progenitor cells (duct monolayer; FIG. 13, 48 hours of treatment): 50 ng/mL
- effect on NAC / floating progenitor cell generation (duct monolayer; [1]): inducing the appearance of floating progenitor cells

Molecule: insulin: hormone insulin added to culture
- effect on secretin-induced induction of floating progenitor cells (duct monolayer; FIG. 14, insulin 10 ng/ml added simultaneously with secretin 100 nM): diminished

Molecule: forskolin [reference compound]
- effect on NAC / floating progenitor cell generation (duct monolayer): can substitute for DCE
- induction of differentiation of duct monolayer (duct monolayer): found to induce differentiation

Molecule: EGF: epidermal growth factor (NSDSECPLSHDGYCLHDGVCMYIEALDKYACNCVVGYIGERCQYRDLKWWELR; UniProt P01133 971-1023, looked up)
- effect on NAC / floating progenitor cell generation (duct monolayer; [1]): neither dexamethasone nor EGF alone had significant effects

Molecule: Cholera toxin [reference compound]
- effect on NAC / floating progenitor cell generation (duct monolayer): majority of the activity
- induction of differentiation of duct monolayer (duct monolayer): found to induce differentiation

Molecule: HGF: hepatocyte growth factor
- effect on NAC / floating progenitor cell generation (duct monolayer; [1]): only slight effects

Molecule: O=C(O)CN(CCOCCOCCN(CC(=O)O)CC(=O)O)CC(=O)O [EGTA]
- effect on calcium current in NACs (NACs): inhibited

Molecule: TGFβ1: growth factor TGFβ1
- effect on NAC / floating progenitor cell generation (duct monolayer; [1]): only slight effects

Molecule: CCCC(=O)[O-].[Na+] [Na-Butyrate, sodium butyrate, reference compound]
- effect on NAC / floating progenitor cell generation (duct monolayer): can substitute for DCE
- induction of differentiation of duct monolayer (duct monolayer): found to induce differentiation

Molecule: CCCCNC(=O)NS(=O)(=O)c1ccc(C)cc1 [tolbutamide]
- effect on calcium current in NACs (NACs): activated; also recorded: stimulated a calcium current
